Literature values in patent US7560230B2, “Method for determining susceptibility of tumor to treatment with anti-neoplastic agent” (Threshold Pharmaceuticals, Inc., priority 2003, dated 2009).

Legend:
Details in all cases: sodium-dependent transport
SGLT3 = tested on: SGLT3
SGLT2 = biological target: T1, SGLT2 (Homo sapiens, UniProt P31639)
T1 sequence (P31639 1-672): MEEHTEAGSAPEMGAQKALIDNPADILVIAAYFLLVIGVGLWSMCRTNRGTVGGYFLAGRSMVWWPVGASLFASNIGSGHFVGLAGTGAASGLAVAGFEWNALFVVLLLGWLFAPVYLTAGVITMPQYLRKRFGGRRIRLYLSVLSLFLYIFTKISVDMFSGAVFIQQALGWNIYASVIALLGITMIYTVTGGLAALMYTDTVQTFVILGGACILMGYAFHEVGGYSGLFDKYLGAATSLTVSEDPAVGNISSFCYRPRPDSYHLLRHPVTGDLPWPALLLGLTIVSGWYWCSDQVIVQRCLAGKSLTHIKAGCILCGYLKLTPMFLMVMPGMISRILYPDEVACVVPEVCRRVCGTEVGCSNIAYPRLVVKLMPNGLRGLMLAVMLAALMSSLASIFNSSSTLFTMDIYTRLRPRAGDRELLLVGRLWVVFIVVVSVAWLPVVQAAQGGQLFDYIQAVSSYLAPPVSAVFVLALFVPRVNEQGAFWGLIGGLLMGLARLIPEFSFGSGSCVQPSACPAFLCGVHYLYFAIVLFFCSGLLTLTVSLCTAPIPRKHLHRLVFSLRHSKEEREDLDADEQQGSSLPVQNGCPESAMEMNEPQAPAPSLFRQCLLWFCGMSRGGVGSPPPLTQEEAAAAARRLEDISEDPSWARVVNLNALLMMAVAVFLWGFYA

SGLT1 = biological target: T2, SGLT1 (Homo sapiens, UniProt P13866)
T2 sequence (P13866 1-664): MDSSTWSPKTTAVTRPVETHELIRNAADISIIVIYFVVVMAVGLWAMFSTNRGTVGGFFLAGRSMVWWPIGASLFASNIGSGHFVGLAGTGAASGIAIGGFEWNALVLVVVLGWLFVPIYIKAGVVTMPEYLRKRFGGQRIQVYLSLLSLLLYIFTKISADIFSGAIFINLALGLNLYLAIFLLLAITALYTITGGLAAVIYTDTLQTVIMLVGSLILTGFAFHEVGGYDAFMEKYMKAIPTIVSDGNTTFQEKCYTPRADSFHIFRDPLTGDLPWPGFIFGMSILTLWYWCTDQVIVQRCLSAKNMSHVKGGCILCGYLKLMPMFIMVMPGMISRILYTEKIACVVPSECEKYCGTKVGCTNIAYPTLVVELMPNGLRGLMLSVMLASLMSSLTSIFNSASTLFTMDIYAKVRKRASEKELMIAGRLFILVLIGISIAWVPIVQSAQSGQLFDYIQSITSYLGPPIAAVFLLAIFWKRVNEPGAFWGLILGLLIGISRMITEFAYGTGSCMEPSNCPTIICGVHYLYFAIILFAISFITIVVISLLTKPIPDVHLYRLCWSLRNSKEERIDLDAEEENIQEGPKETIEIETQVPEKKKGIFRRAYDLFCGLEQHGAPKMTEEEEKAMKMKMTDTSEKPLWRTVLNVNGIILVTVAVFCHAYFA

- apparent affinity (K0.5) (SGLT2): 2 mM
- apparent affinity (K0.5) (SGLT1): 0.4 mM
SMILES: CO[C@H]1O[C@H](CO)[C@@H](O)[C@H](O)[C@H]1O [a-MDG, a-methyl-D-glucoside]
- apparent affinity (K0.5) (SGLT3): 2 mM
